Measured values as given in US9216169B2, “Pharmaceutical composition comprising candesartan or ester thereof and chlortalidone, and use thereof” (TIANJIN INSTITUTE OF PHARMACEUTICAL RESEARCH, priority 2011, dated 2015).
Where “and” joins values, the source holds several entries; their conditions need not be identical. Equal values may be shown once.

Assays:
[1] = test system: Spontaneously hypertensive rats (SHR); assay: SBP of SHR by Tail-Cuff method, continuous intragastric administration for 8 days (Examples 1-7); format: in vivo, rat; conditions: for maximum reduction of the blood pressure / SBP / SBP difference value compared with the basic value / AUC0-24h (area under blood pressure reduction-time curve): Can 0.36 mg/kg i.g. 8 days; for maximum reduction of the blood pressure: 0-24 h after last administration; for AUC0-24h (area under blood pressure reduction-time curve): after last administration
Procedure: (§1) Spontaneously hypertensive rats (SHR), male, are provided by Beijing Vital River Laboratory Animal Technology Co., Ltd. The number of animal production license is SCXK (Jing) 2007-0001. Animals are raised in an observation room at the room temperature of 25±2° C. controlled by central air-conditioning system and with artificial lighting of 12 h/day. The animals are raised in separate cages sized 43×27×18 cm with 4 animals for each cage. The rats are free access to water and are fed with block fodder everyday, and the water supply is refreshed once a day. The temperature of the room for measuring the blood pressure is 26±2° C.
(§2) The blood pressure is measured by Tail-Cuff method and the hear rate is measured according to the pulse frequency. Animals are pre-trained for the blood pressure measurement for more than 2 weeks so as to adapt to the environment of measurement. Animals are placed in a isothermal bag at 37° C. to be prewarmed for 5 to 10 min for formal measurement. Blood pressures of the rats are measured from tail arteries for 2 to 3 times at rest states, and an average value is taken as each blood pressure measured value. All data are collected and preserved by a computer.
SHRs with systolic blood pressures (SBPs) >190 mmHg are selected for experiment.
Rats are randomly divided into 14 groups according to their blood pressures with each group having 7 rats. Animals are fasted overnight and measured for the blood pressure of pre-administration at the day of experiment, and then administered drugs in accordance with the following method:
The single-drug group is intragastrically administered candesartan (Can) or chlorthalidone (Chl), with the dosage of Can of 0.36 mg/kg and the dosages of Chl of 0.0675, 0.36, 0.54, 0.72, 1.125 and 2.25 mg/kg respectively;
The pharmaceutical composition is administered with 6 different doses (denoted by F1, F2, F3, F4, F5 and F6 respectively). Specifically, the ratios of the dosages of Can+Chl in all pharmaceutical compositions are:
The administration volumes are all 5 ml/kg.
Rats are continuously administered for 8 days. SBPs are measured 2, 4, 8, 12 and 24 hours after the last administration. The area under blood pressure reduction-time curve from 0 to 24 h (AUC0-24) and the maximum blood pressure reduction value are calculated.
(§3) The calculated results are expressed as mean±standard error ( x±SE); statistical treatment is performed using unpaired t test between groups to compare the significance of the average difference; the interaction between drugs are determined by using factorial analysis of variance, and P<0.05 means the difference has statistical significance.

[2] = test system: Spontaneously hypertensive rats (SHR); assay: SBP of SHR by Tail-Cuff method, first administration and continuous administration for 14 days (Examples 8-12); format: in vivo, rat; conditions: for AUC0-24h: after first administration
Procedure: as §1, §2
SHRs with systolic blood pressures (SBPs)>190 mmHg are selected for experiment.
Rats are randomly divided into 20 groups according to their blood pressures with each group having 8-10 rats. Animals are fasted overnight and measured for the blood pressure of pre-administration at the day of experiment, and then administered drugs in accordance with the following method:
The single-drug group is intragastrically administered candesartan (Can) or chlorthalidone (Chl), with the dosage of Can of 0.1, 0.2, 0.4 mg/kg respectively and the dosage of Chl of 0.3125, 0.625, 1.25 mg/kg respectively;
According to the clinical single-drug specification, the ratios of Can+Chl are set as follows:
For the ratio of Can:Chl=1:6.25, one dose of 0.1+0.625 mg/kg is set;
For the ratio of Can:Chl=1:3.125, two doses of 0.2+0.625 and 0.4+1.25 mg/kg are set;
For the ratio of Can:Chl=1.28:1, one dose of 0.4+0.3125 mg/kg is set;
For the ratio of Can:Chl=2.56:1, one dose of 0.4+0.15625 mg/kg is set;
The administration volumes are all 5 mL/kg. Rats are continuously administered for 14 days. SBPs are measured 2, 4, 8, 12 and 24 hours after the first administration. On the day of 3, 7, 14 days after administration, the blood pressures are measured before administration and 5 hours after administration. Areas under blood pressure reduction-time curve from 0 to 24 h and from 0 to 14 days (AUC0-24h, AUC0-14d) are calculated.
as §3

patients = conditions: study in 1714 patients; cited from earlier work
[3] = 25-50 mg/d of hydrochlorothiazide; clinical studies; cited from earlier work
[4] = clinical studies; cited from earlier work
[5] = listed as candesartan cilexetil

CCOc1nc2cccc(C(=O)OC(C)OC(=O)OC3CCCCC3)c2n1Cc1ccc(-c2ccccc2-c2nn[nH]n2)cc1 (stereo not shown) [Can, Candesartan cilexetil]
maximum reduction of the blood pressure [1]: −19.0 mmHg | maximum reduction of the blood pressure [1, 5]: 19.0 mmHg | SBP ([1]; 2 h after last administration): 192 mmHg | SBP difference value compared with the basic value ([1]; 2 h after last administration): (−11.0 mmHg | SBP ([1]; 4 h after last administration): 185 mmHg | SBP difference value compared with the basic value ([1]; 4 h after last administration): (−17.7 mmHg | SBP ([1]; 8 h after last administration): 196 mmHg | SBP difference value compared with the basic value ([1]; 8 h after last administration): (−7.3 mmHg | SBP ([1]; 12 h after last administration): 199 mmHg | SBP difference value compared with the basic value ([1]; 12 h after last administration): (−3.7 mmHg | SBP ([1]; 24 h after last administration): 204 mmHg | SBP difference value compared with the basic value ([1]; 24 h after last administration): (1.4 mmHg | AUC0-24h (area under blood pressure reduction-time curve) [1]: −127.0 mmHg · h | AUC0-24h (area under blood pressure reduction-time curve) [1, 5]: −127 mmHg · h | SBP ([1]; pre-administration): 201 mmHg | SBP difference value compared with the basic value ([1]; pre-administration): (−2.0 mmHg | period after administration with significant reduction of SBP ([1]; Can 0.36 mg/kg oral): 2 to 8 h | time at which the antihypertensive effect takes effect after administration ([1]; Can 0.36 mg/kg oral): 2 h | AUC0-14d ([2]; Can 0.1 mg/kg i.g. for 14 days): −149.9 mmHg · d | AUC0-24h ([2]; Can 0.1 mg/kg i.g.): −209.1 mmHg · h | AUC0-14d ([2]; Can 0.2 mg/kg i.g. for 14 days): −173.1 mmHg · d | AUC0-24h ([2]; Can 0.2 mg/kg i.g.): −237.7 mmHg · h | AUC0-14d ([2]; Can 0.4 mg/kg i.g. for 14 days): −227.3 mmHg · d | AUC0-24h ([2]; Can 0.4 mg/kg i.g.): −326.0 mmHg · h and −326 mmHg · h

CCOc1nc2cccc(C(=O)O)c2n1Cc1ccc(-c2ccccc2-c2nc(=O)o[nH]2)cc1 [azilsartan]
reduction of SBP compared with the basic value (patients): 12.1-15.9 mmHg

NS(=O)(=O)c1cc2c(cc1Cl)NCNS2(=O)=O [hydrochlorothiazide, Hydrochlorothiazide]
lowering of 24-hour blood pressure [3]: 7.4 mmHg | lowering of night-time blood pressure [3]: 6.4 mmHg

NCCCC[C@H](N[C@@H](CCc1ccccc1)C(=O)O)C(=O)N1CCC[C@H]1C(=O)O [lisinopril]
valid control rate of blood pressure [4]: 61.2%
